Test results reported in patent US8197860B2, “Method for enhancing nutrient absorption with astragalosides” (Nuliv Holding Inc., priority 2005, dated 2012).

Tests used:
Format in all cases: cell-based, human
Caco2 cells [1] = experiment: Glucose uptake assay; design: key to * (regulatory effect on glucose uptake): ↑: the arrows that point up represent the enhancing effect on the glucose uptake; details: for Uptake rate (glucose): 48 hours, 25 mM glucose
Protocol: (§1) To evaluate the effect of the isolated astragaloside compound on the uptake of nutrient substances across the intestinal lumen, Caco-2 cells were grown on permeable filter as an experimental model. Caco2 cells originate from human colonic adenocarcinoma and spontaneously differentiate into an enterocyte-like phenotype after two weeks. The Caco-2 cell line, derived from a human colorectal carcinoma, has been used as an in vitro model system for studying drug absorption in gastrointestinal tract. These cells form monolayers with well-developed tight-junctions, and have been evaluated in details as an in vitro model to study both transcellular transport of nutrients and drugs in intestinal lumen.
(§2) Caco-2 cells were obtained from the ATCC (American Type Culture Collection). The cells were maintained in Dulbecco's modified Eagle medium (DMEM) containing 4.5 g/L glucose and 25 mM Hepes, supplemented with 10% fetal calf serum, 100 U/mL penicillin G and […]. The medium was changed every second day. The cells were routinely checked for Mycoplasma in monthly intervals. Caco-2 cells were cultured on semi-permeable membranes to differentiate into a highly functionalized epithelial barrier with remarkable morphological and biochemical similarity to the small intestinal columnar epithelium. The Caco-2 cell monolayers could therefore be used to study the membrane transport properties of many compounds. To trypsinize the cells, the culture dish was washed once with phosphate-buffered saline (PBS) followed by adding trypsine-EDTA for 10 minutes. The trypsinized cells were separated and filtered into single cells using a 35-μm strainer cap (Falcon 2235) before being seeded for further experiments.
(§3) Caco-2 cells (5×10^4) were seeded in a 48-well plate and maintained in culture medium (DMEM with 10% FBS, 1% nonessential amino acids, L-glutamine, penicillin G (100 U/mL), streptomycin (10 μg/mL), and amphotericin B (2.5 μg/mL) in a 37° C. incubator for 10 days for the cells to differentiate. The culture medium was changed once every two days. The cells were then washed with PBS before replenishing with the culture medium containing 5% FBS and various astragalosides at the indicated concentrations (0.01, 0.1 and 1 μM) for 48 hours. The Caco2 cells were washed out of remaining glucose with PBS and replaced in the glucose buffer (80 mM NaCl, 100 mM mannitol, 20 mM Tris-HCl, pH 7.4, 3 mM K2HPO4, 1 mM CaCl2, 1 mg/mL BSA) for 1 hour. Glucose uptake was initiated by replacing the glucose buffer with 0.2 ml of glucose buffer containing 2 μCi/mL of ^14C-glucose and unlabeled cold glucose to give a final glucose concentration of 25 mM. Glucose uptake was stopped by removing the glucose buffer and washing with PBS at designated time intervals. The cells were lysed in 0.2 mL of 0.2 N NaOH, and 20 μL of the cell lysate were transferred to the filter-bottomed UniFilter plates (Perkin-Elmer, Wellesley, Mass., USA) and dried in a vacuum oven at 37° C. The bottom of the UniFilter plate was sealed and 25 μL of the counting solution were added into each well. Adhesive plate sealers were used in place of the lids and radioactivity of each sample was counted using the microplate liquid scintillation counter (TopCount, Packard NXT, Packard BioScience Company, Meriden, Conn., USA). The amount of glucose accumulated in the cells was calculated and normalized to protein concentration, and uptake rate was expressed as nanomoles of glucose per minutes per milligram of cell protein (nmol/min/mg). Protein concentration was determined by a standard Bicinchoninic acid (BCA) protein assay. Nonspecific glucose uptake was measured by adding 2 μCi of L-[^14C]-glucose and subtracting from each determination to obtain specific glucose uptake.

Caco-2 cell monolayer [2] = experiment: Tryptophan absorption assay (transport across Caco-2 cell monolayer); design: key to * (regulatory effect on tryptophan transport): ↑: the arrows that point up represent the enhancing effect on the tryptophan transport; details: for Regulatory effects on the tryptophan transport across the Caco2 cell monolayer: Table 4 summary; for Tryptophan transport rate: concentration from 0.01 μM to 1 mM
Protocol: as §1, §2
(§4) In measuring transport of arginine across the Caco-2 cell monolayer, both sides of the transwells were washed with arginine incubation buffer consisting of: 137 mM NaCl, 10 mM Hepes, 0.3 mM NaH2PO4, 0.3 mM K2HPO4, 5.4 mM KCl, 2.8 mM CaCl2, 1 mM MgSO4, 10 mM glucose, adjusted to pH 7.4. Then, the cell layer was preincubated in the incubation buffer at 37° C. for 1 h. The volume of incubation buffer was 0.2 mL and 0.9 mL in the apical and basolateral chambers, respectively. The cells were replaced with fresh incubation medium in both chambers prior to the transport experiment. The transport experiment was initiated by replacing the incubation solution on the apical side with solution containing 10 mM of L-arginine in which 0.125 μCi/mL of L-[^3H]-arginine was included. At designated time intervals, 10 μL-solution samples were removed from the basolateral side and radioactivity of each sample was counted using a microplate liquid scintillation counter (TopCount, Packard NXT). During the experiment, when a 10 μL-solution sample was removed from the basolateral side every time, 10 μL buffer was supplemented to keep the volume constant. The uptake of [^3H]-mannitol was used to correct for nonspecific transport of molecules across the monolayer membrane. Results were expressed as the nanomoles of arginine transport across the Caco-2 cell monolayers with respect to time in minutes (nmol/min).
The experimental procedures similar to those in Example 2 were used for measuring the uptake of tryptophan molecules across the Caco-2 membrane, except using a tryptophan incubation buffer consisting of 137 mM choline chloride, 10 mM Hepes, 0.6 mM KH2PO4, 5.4 mM KCl, 2.8 mM CaCl2, 1 mM MgSO4, and 10 mM glucose, and having its pH adjusted to 7.4. Results were expressed as the nanomoles of tryptophan transport across the Caco-2 cell monolayers with respect to time in minutes (nmol/min).

Caco-2 cell monolayer [3] = experiment: Arginine absorption assay (transport across Caco-2 cell monolayer); design: key to * (regulatory effect on arginine transport): ↑: the arrows that point up represent the enhancing effect on the arginine transport; details: for Regulatory effects on the arginine transport across the Caco2 cell monolayer: Table 3 summary; for Transport rate (arginine): 10 mM L-arginine apical
Protocol: as §1, §2, §4

Caco2 cells [4] = experiment: Folate uptake assay; design: key to * (regulatory effect on folate uptake): ↑: the arrows that point up represent the enhancing effect on folate uptake; details: compound 0.1 μM; for Uptake rate (folate): 2 days, 5 μM folate, pH 6.0
Protocol: as §1, §2, §3
The Caco2 cells were subjected to folate uptake test in a manner similar to that described in the glucose uptake assay in Example 1 above. […]

| Structure (SMILES) | Regulatory effects on the tryptophan transport across the Caco2 cell monolayer (Caco-2 cell monolayer [2]) | * (regulatory effect on tryptophan transport) (Caco-2 cell monolayer [2]; compound 0.01 μM) | Percentage (tryptophan transport, control = 100) (Caco-2 cell monolayer [2]; compound 0.01 μM) | Transport rate (tryptophan) (Caco-2 cell monolayer [2]; compound 0.01 μM) | * (regulatory effect on tryptophan transport) (Caco-2 cell monolayer [2]; compound 0.1 μM) | Percentage (tryptophan transport, control = 100) (Caco-2 cell monolayer [2]; compound 0.1 μM) | Transport rate (tryptophan) (Caco-2 cell monolayer [2]; compound 0.1 μM) | Tryptophan transport rate (Caco-2 cell monolayer [2]) | Regulatory effects on the arginine transport across the Caco2 cell monolayer (Caco-2 cell monolayer [3]) | * (regulatory effect on arginine transport) (Caco-2 cell monolayer [3]; compound 0.01 μM) | Percentage (arginine transport, control = 100) (Caco-2 cell monolayer [3]; compound 0.01 μM) | Transport rate (arginine) (Caco-2 cell monolayer [3]; compound 0.01 μM) | * (regulatory effect on arginine transport) (Caco-2 cell monolayer [3]; compound 0.1 μM) | Percentage (arginine transport, control = 100) (Caco-2 cell monolayer [3]; compound 0.1 μM) | Transport rate (arginine) (Caco-2 cell monolayer [3]; compound 0.1 μM) | * (regulatory effect on folate uptake) (Caco2 cells [4]) | Percentage (folate uptake vs own control) (Caco2 cells [4]) | Uptake rate (folate) (Caco2 cells [4]) | other results |
| --- | --- | --- | --- | --- | --- | --- | --- | --- | --- | --- | --- | --- | --- | --- | --- | --- | --- | --- | --- |
| CC(=O)O[C@@H]1[C@@H](O)[C@H](O[C@H]2CC[C@]34C[C@]35CC[C@]3(C)[C@@H]([C@@]6(C)CC[C@@H](C(C)(C)O)O6)[C@@H](O)C[C@@]3(C)[C@@H]5C[C@H](O[C@@H]3O[C@H](CO)[C@@H](O)[C@H](O)[C@H]3O)[C@H]4C2(C)C)OC[C@H]1O [IsoAS2, isoastragaloside II] | had regulatory effects on the tryptophan transport | ↑ | 145.38% | 13.000 ± 0.5547 nmol/min | ↑ | 146.05% | 13.060 ± 0.5530 nmol/min | increased | had regulatory effects on the arginine transport | ↑ | 138.11% | 14.7577 ± 0.2837 nmol/min | ↑ | 132.01% | 14.1059 ± 0.1815 nmol/min | ↑ | 162.87% | 86.63 ± 2.82 pmol/mg/min | Regulatory effects on the glucose uptake of the Caco2 cells (Caco2 cells [1]; Table 2 summary): had regulatory effects on the glucose uptake; * (regulatory effect on glucose uptake) (Caco2 cells [1]; compound 0.01 μM): ↑; Percentage (glucose uptake, control = 100) (Caco2 cells [1]; compound 0.01 μM): 115.69%; Uptake rate (glucose) (Caco2 cells [1]; compound 0.01 μM): 7.3720 ± 2.5700 nmol/mg/min; * (regulatory effect on glucose uptake) (Caco2 cells [1]; compound 0.1 μM): ↑; Percentage (glucose uptake, control = 100) (Caco2 cells [1]; compound 0.1 μM): 107.05%; Uptake rate (glucose) (Caco2 cells [1]; compound 0.1 μM): 6.8210 ± 1.6630 nmol/mg/min; Percentage (glucose uptake, control = 100) (Caco2 cells [1]; compound 1 μM): 96.55%; Uptake rate (glucose) (Caco2 cells [1]; compound 1 μM): 6.1520 ± 2.4610 nmol/mg/min; * (regulatory effect on tryptophan transport) (Caco-2 cell monolayer [2]; compound 1 μM): ↑; Percentage (tryptophan transport, control = 100) (Caco-2 cell monolayer [2]; compound 1 μM): 224.45%; Transport rate (tryptophan) (Caco-2 cell monolayer [2]; compound 1 μM): 20.070 ± 0.1931 nmol/min; * (regulatory effect on arginine transport) (Caco-2 cell monolayer [3]; compound 1 μM): ↑; Percentage (arginine transport, control = 100) (Caco-2 cell monolayer [3]; compound 1 μM): 118.40%; Transport rate (arginine) (Caco-2 cell monolayer [3]; compound 1 μM): 12.6518 ± 0.3680 nmol/min; Arginine transport rate (Caco-2 cell monolayer [3]; concentration from 0.01 μM to 1 μM): increased |
| CC(=O)O[C@H]1[C@H](O[C@H]2CC[C@]34C[C@]35CC[C@]3(C)[C@@H]([C@@]6(C)CC[C@@H](C(C)(C)O)O6)[C@@H](O)C[C@@]3(C)[C@@H]5C[C@H](O[C@@H]3O[C@H](CO)[C@@H](O)[C@H](O)[C@H]3O)[C@H]4C2(C)C)OC[C@@H](O)[C@@H]1O [AS2, astragaloside II] | had regulatory effects on the tryptophan transport | ↑ | 115.07% | 10.290 ± 0.4115 nmol/min | ↑ | 130.28% | 11.650 ± 0.5789 nmol/min | increased | had regulatory effects on the arginine transport | ↑ | 151.94% | 16.2358 ± 1.6190 nmol/min | ↑ | 161.69% | 17.2771 ± 1.6170 nmol/min | ↑ | 129.05% | 69.970 ± 3.7720 pmol/mg/min | * (regulatory effect on arginine transport) (Caco-2 cell monolayer [3]; compound 0.001 μM): ↑; Percentage (arginine transport, control = 100) (Caco-2 cell monolayer [3]; compound 0.001 μM): 136.97%; Transport rate (arginine) (Caco-2 cell monolayer [3]; compound 0.001 μM): 14.6355 ± 1.2910 nmol/min; Arginine transport rate (Caco-2 cell monolayer [3]; concentration from 0.001 μM to 0.1 μM): increased |
